The record followed here is publication PMC3504066 (PLoS ONE, 2012).

Where only a bound is given, the exact number is not on record here.

In one experiment the test system is Noxa. In words: Noxa protein expression by Western blot in NCI-H1975 cells. It counts as cell-based. Conditions: 3 to 4 µM for 24 h. On the procedure:
(§1) Cells were suspended in lysis buffer (50 mM Tris-HCl (pH 7.4), 150 mM NaCl, 1% triton X-100, 1% sodium deoxycholate, 0.1% SDS, 1 mM Na3VO4, 1 mM NaF, 1 mM EDTA, 1 mM PMSF, complete protease inhibitor cocktail) and cleared by centrifugation to obtain whole-cell lysates. Equal amounts of samples were separated by SDS-PAGE, transferred to nitrocellulose and immunoblotted with antibody indicated.

Experiment [1] concerns NCI-H1975 cells. In words: NCI-H1975 xenograft model in nude mice. The class given is in vivo. The following applies: 30 mg/kg/day oral, 3 weeks; for tumor growth: nude mice with subcutaneous NCI-H1975 tumors. On the procedure:
All animal studies were conducted according to protocols approved by the Animal Ethics Committee of the Institute of Zoology, Chinese Academy of Sciences, with the approval ID of AEC2011030205. All mice used in this study were bred and maintained in a specific pathogen-free environment. NCI-H1975 cells (2.5×10^6) were injected subcutaneously into the right flank of nude mice. […]. Animals were sacrificed when tumors reached 2 cm or if the mice appeared moribund to prevent unnecessary morbidity to the mice. At the time of the animals' death, tumors were excised; cells were separated and lyzed for Western blotting using anti-Noxa antibody and anti-Actin antibodies. Noxa expression was then quantified by densitometry analysis and normalized against Actin expression.
We tested the in vivo anti-tumor efficacy of V1801. […]. Animals were euthanized when they were treated for 3 weeks and the tumor samples were isolated and imaged (Fig. 6c). Proteins were extracted from tumor samples and Western blot assay was conducted. […]

Experiment [2] concerns NCI-H1975 cells. Put plainly: Cytotoxicity / cell proliferation (MTT assay) in NCI-H1975 cells. Conditions: for IC50: Homo sapiens, NCI-H1975. It counts as cell-based. On the procedure:
Cell proliferation was determined using MTT assay. Cell viability was estimated by trypan blue dye exclusion. Externalization of phosphatidylserine was tested using an Annexin V/PI Apoptosis Detection kit (BD Biosciences, San Jose, CA) according to manufacturer's instruction.

The next experiment has as its target T1, EGFR kinase (Homo sapiens, UniProt P00533).
T1 construct: purchased Promega
In words: In vitro EGFR kinase assay (ADP-Glo Kinase Assay Kit, EGFR Kinase Enzyme System). The class given is biochemical. On the procedure: In vitro kinase inhibitory ability was determined using the ADP-Glo™ Kinase Assay Kit and EGFR Kinase Enzyme System (Promega), following the manufacturer's instructions.

Experiment [3] concerns phosphorylated EGFR (p-EGFR). In words: Western blot of phosphorylated EGFR in HCC827 cells. The class given is cell-based. Conditions: gefitinib-sensitive HCC827 cells, 12 h. On the procedure:
as §1

Experiment [4] concerns A549 cells. In words: Cell proliferation (MTT assay) in A549 cells. The class given is cell-based. The following applies: wild type EGFR-expressing A549, MTT assay, 48 h, dose-dependent. As for the experimental part:
(§2) Cell proliferation was determined using MTT assay. Cell viability was estimated by trypan blue dye exclusion. Externalization of phosphatidylserine was tested using an Annexin V/PI Apoptosis Detection kit (BD Biosciences, San Jose, CA) according to manufacturer's instruction. After staining with Hoechst 33258 at 10 µg/ml for 10 min, cell death was assessed by a fluorescence microscope (Leica).

The test system of experiment [5] is NCI-H1975 cells. Put plainly: Apoptosis by Annexin V/PI staining and flow cytometry in NCI-H1975 cells. It counts as cell-based. The following applies: 24 h. On the procedure:
as §2

Experiment [6] relates to A549 cells. In words: Apoptosis by Annexin V/PI staining and flow cytometry in A549 cells. The class given is cell-based. The following applies: 24 h. On the procedure:
as §2

Experiment [7] has as its system NCI-H1975 cells. In words: Soft-agar colony formation (clonogenic) assay. It counts as cell-based. The following applies: 3 µM for 12 h, colonies after 2 weeks; compared to gefitinib or vehicle control. The source says: To this end, trypsinized cells were suspended in RPMI 1640 medium containing 10% FBS and low-melting-point 0.3% agarose (Amresco, Solon, OH) and subsequently overlaid onto a solidified layer of RPMI 1640 medium containing 10% FBS and 0.6% agarose in 35 mm plate (5,000 cells/plate) in triplicate. After 2 weeks, the colonies were fixed in 90% ethanol and stained with 0.005% crystal violet (Sigma). The colony forming units with more than 100 cells were counted using a light microscope.

Experiment [8] concerns phosphorylated EGFR (p-EGFR). In words: Western blot of phosphorylated EGFR in NCI-H1975 cells. It counts as cell-based. The following applies: 12 h. As for the experimental part:
as §1

The test system of experiment [9] is NCI-H1975 cells. Put plainly: Combination of V1801 and bortezomib in NCI-H1975 cells (MTT, combination index). It counts as cell-based. Conditions: 24 h. On the procedure: as §2
The interaction between compounds was quantified by determining the combination index (CI) calculated by the Chou–Talalay equation [29], [30]. The general equation for the classic isobologram is given by: CI = (D)1/(Dx)1+(D)2/(Dx)2. Where Dx indicates the dose of one compound alone required to produce an effect, (D)1 and (D)2 are the doses of compounds 1 and 2, respectively, necessary to produce the same effect in combination. From this analysis, the combined effects of the two compounds can be summarized as follows: CI<1 indicates synergism; CI = 1 indicates additive effect; and CI>1 indicates antagonism.

[10] abbreviates: L858R/T790M-EGFR harboring NSCLC cells.

T1 sequence (P00533 25-1210): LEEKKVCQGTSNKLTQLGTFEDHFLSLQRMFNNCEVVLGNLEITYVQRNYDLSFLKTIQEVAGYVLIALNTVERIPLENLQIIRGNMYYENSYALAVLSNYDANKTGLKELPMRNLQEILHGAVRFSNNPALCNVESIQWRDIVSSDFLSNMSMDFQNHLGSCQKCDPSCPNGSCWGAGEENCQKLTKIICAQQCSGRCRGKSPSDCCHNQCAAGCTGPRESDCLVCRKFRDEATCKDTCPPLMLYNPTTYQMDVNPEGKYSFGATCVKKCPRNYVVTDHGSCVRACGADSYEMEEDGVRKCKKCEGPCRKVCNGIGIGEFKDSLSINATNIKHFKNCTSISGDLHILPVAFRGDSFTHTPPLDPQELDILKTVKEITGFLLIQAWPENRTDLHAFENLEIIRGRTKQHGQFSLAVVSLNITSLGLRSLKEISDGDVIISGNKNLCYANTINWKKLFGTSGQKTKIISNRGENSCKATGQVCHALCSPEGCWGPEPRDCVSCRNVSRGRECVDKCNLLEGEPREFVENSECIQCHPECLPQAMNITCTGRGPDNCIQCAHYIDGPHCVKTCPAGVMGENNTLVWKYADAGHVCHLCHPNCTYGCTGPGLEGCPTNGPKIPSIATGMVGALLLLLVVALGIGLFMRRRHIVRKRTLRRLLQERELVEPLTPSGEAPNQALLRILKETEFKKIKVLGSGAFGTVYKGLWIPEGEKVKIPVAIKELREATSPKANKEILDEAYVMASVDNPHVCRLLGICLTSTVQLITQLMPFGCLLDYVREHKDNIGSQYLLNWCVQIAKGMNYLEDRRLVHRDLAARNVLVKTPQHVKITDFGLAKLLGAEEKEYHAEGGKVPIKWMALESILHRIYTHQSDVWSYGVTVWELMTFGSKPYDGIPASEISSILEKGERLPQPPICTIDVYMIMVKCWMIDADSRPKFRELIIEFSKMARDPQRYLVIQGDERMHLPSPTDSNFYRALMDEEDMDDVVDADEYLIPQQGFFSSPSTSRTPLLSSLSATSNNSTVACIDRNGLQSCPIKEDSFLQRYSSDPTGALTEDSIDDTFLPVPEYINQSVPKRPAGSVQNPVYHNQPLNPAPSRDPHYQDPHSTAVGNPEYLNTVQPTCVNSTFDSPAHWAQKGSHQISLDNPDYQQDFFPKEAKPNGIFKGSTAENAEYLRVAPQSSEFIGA

`COc1cc2ncnc(Nc3ccc(F)c(Cl)c3)c2cc1OCCCN1CCOCC1` [Gefitinib, N-(3-chloro-4-fluoro-phenyl)-7-methoxy-6-(3-morpholin-4-ylpropoxy) quinazolin-4-amine, reference compound]: the Noxa protein level result with Noxa was “failed to up-regulate”. In addition, the tumor growth result in the experiment with NCI-H1975 cells [1] is reported as “does not show therapeutic benefit”.

Turning to `COc1cc2c(Nc3cc(C(F)(F)F)ccc3Cl)ncnc2cc1OCCCN=[N+]=[N-]` [V1301], the half-maximal inhibitory concentration (IC50) in the experiment on NCI-H1975 cells [2] (setting [10]) and on EGFR kinase was > 10 µM in each case.

`CCCCCCc1cn(CCCOc2cc3ncnc(Nc4cc(C(F)(F)F)ccc4Cl)c3cc2OC)nn1` [V1302]: the concentration for half-maximal inhibition (IC50) in the experiment with NCI-H1975 cells [2] (setting [10]) and against EGFR kinase was > 10 µM each time.

In the case of `COc1cc2c(Nc3cc(C(F)(F)F)ccc3Cl)ncnc2cc1OCCCn1cnnn1` [V1303], the concentration for half-maximal inhibition (IC50) in the experiment with NCI-H1975 cells [2] (setting [10]) and at EGFR kinase was > 10 µM in each case.

Regarding `C=CCOc1cc2ncnc(Nc3cc(C(F)(F)F)ccc3Cl)c2cc1OC` [V1304], at EGFR kinase, the 50% inhibitory concentration (IC50) was > 10 µM.

As to `COc1cc2c(Nc3cc(C(F)(F)F)ccc3Cl)ncnc2cc1OCCCN1CCOCC1` [V1305], the half-inhibitory concentration (IC50) against EGFR kinase was > 10 µM.

Turning to `COc1cc2c(Nc3cc(C(F)(F)F)ccc3Cl)ncnc2cc1OCCN1CCCCC1` [V1306], on EGFR kinase, the IC50 was > 10 µM.

For the compound `COc1cc2c(Nc3cc(C(F)(F)F)ccc3Br)ncnc2cc1OCCCN1CCCCC1` [V1801, N-(2-bromo-5-(trifluoromethyl)phenyl)-6-methoxy-7-(3-(piperidin-1-yl)propoxy)quinazolin-4-amine], the Noxa protein level entry in the experiment on Noxa is listed as “markedly up-regulated”. Further, the “de-phosphorylation of p-EGFR” value in experiment [3] is “not”. Besides, in the experiment on A549 cells [4], the “inhibition of proliferation of A549 cells” value is “significant inhibitory effects”. For the same compound, the induction of apoptosis entry in the experiment on NCI-H1975 cells [5] and in the experiment with A549 cells [6] was “induced apoptosis” each time. For the same compound, the “clonogenic activity of NCI-H1975 cells” value in the experiment on NCI-H1975 cells [7] is reported as “drastically inhibited”. For the same compound, the tumor growth result in the experiment with NCI-H1975 cells [1] is recorded as “significantly inhibited tumor growth”. The “Noxa expression in tumor samples” value in the experiment on NCI-H1975 cells [1] (Western blot, compared with vehicle or gefitinib control mice) was “up-regulated”. The “down-regulation of phosphorylated EGFR (p-EGFR)” value in [8] is given as “failed to down-regulate”. Moreover, the IC50 in the experiment on NCI-H1975 cells [2] (setting [10]) stood at 3 µM; against EGFR kinase, 0.702 µM. Besides, the “inhibition of proliferation of NCI-H1975 cells” value in the experiment on NCI-H1975 cells [2] (MTT assay, 48 h, dose-dependent) was “significant inhibitory effects”. Also, the “combination index (CI)” value in the experiment with NCI-H1975 cells [9] (V1801 (2 µM) combined with bortezomib 10 to 15 nM, CI<1 indicates synergism) is “less than 1”.

`COc1cc2c(Nc3ccc(Br)c(C(F)(F)F)c3)ncnc2cc1OCCCN1CCCCC1` [V1802]: the IC50 stood at 7.8 µM in the experiment on NCI-H1975 cells [2] (setting [10]) and 0.623 µM against EGFR kinase.

Turning to `COc1cc2c(Nc3ccc4c(C(F)(F)F)cc(=O)oc4c3)ncnc2cc1OCCCN1CCCCC1` [V1803], in the experiment with NCI-H1975 cells [2] (setting [10]), the “IC50 NCI-H1975 cells” value was “Insoluble”.

For `COc1cc2c(Nc3ccc4nc(C(F)(F)F)[nH]c4c3)ncnc2cc1OCCCN1CCCCC1` [V1804], the results for the concentration for half-maximal inhibition (IC50) with NCI-H1975 cells [2] (setting [10]) and against EGFR kinase were > 10 µM and 2 µM, respectively.

As for `COc1cc2c(Nc3cc(C(F)(F)F)ccc3F)ncnc2cc1OCCCN1CCCCC1` [V1805], the IC50 was > 10 µM in the experiment with NCI-H1975 cells [2] (setting [10]) and 0.12 µM against EGFR kinase.

`COc1cc2c(Nc3cc(C(F)(F)F)ccc3Cl)ncnc2cc1OCCCC1CCCCC1` [V1806]: the IC50 in the experiment with NCI-H1975 cells [2] (setting [10]) and against EGFR kinase was > 10 µM each time.

For `COc1cc2c(Nc3cc(C(F)(F)F)cc(C(F)(F)F)c3)ncnc2cc1OCCCN1CCCCC1` [V1807], the IC50 with NCI-H1975 cells [2] (setting [10]) was 7.5 µM; against EGFR kinase it was > 10 µM.

As to `COc1cc2c(Nc3cc(C(F)(F)F)ccc3Cl)ncnc2cc1OCCCN1CCCCC1` [V1808], the half-inhibitory concentration (IC50) in the experiment on NCI-H1975 cells [2] (setting [10]) amounted to 18.2 µM; on EGFR kinase, 2.67 µM.

Take `CC(C)C[C@H](NC(=O)[C@H](Cc1ccccc1)NC(=O)c1cnccn1)B(O)O` [bortezomib, reference compound]: the “enhancement of V1801-caused inhibition of cell proliferation” value with NCI-H1975 cells [9] (bortezomib 10 to 15 nM with V1801 2 µM, MTT) was “significantly enhanced”.
